Legend:
Format in all cases: in vivo, mice (Std-ddY strain)
[1] = tested on: scopolamine-induced hypermotility; assay: Antagonistic effect on scopolamine-induced hypermotility; settings: Mus musculus, po, orally, scopolamine hydrobromide 1 mg/kg i.p., complete antagonism to motility level of non-dosed animals=100%, read-out: Inhibitory ratio (% antagonism of scopolamine-induced hypermotility)
Protocol: Antagonistic effect on scopolamine-induced hypermotility:
A test compound was orally administered to each mouse, and 90 minutes after the administration, each one test animal was placed within a test cage (25×35×30 cm). After 30 minutes, scopolamine hydrobromide (1 mg/kg) was intraperitoneally administered to the mice and then the motility was measured with Animex activity meter for 30 minutes. The effect of test compounds was expressed as % antagonism (complete antagonism to the motility level of non-dosed animals=100%).

[2] = tested on: scopolamine-induced deficit of spontaneous alternation behavior; assay: Improving effect on scopolamine-induced deficit of spontaneous alternation behavior (T-maze); settings: scopolamine hydrobromide 1 mg/kg, non-dosed mice=100%
Text: Improving effect on scopolamine-induced deficit of spontaneous alternation behavior:
A group of 15-25 male mice (Std-ddY strain, 22-28 g) was used for evaluating effect of the test compounds on scopolamine-induced deficit of spontaneous alternation in a T-maze, which is a known animal model of memory impairment due to hypofunction of the cholinergic nervous system. The T-maze used consists of a stem and two arms which are 25 cm long, 5 cm wide and 10 cm high. The first 10 cm of the stem and last 10 cm of each arm are divided by sliding doors into start and goal boxes.
A test compound and scopolamine hydrobromide (1 mg/kg) were intraperitoneally administered to each mouse, and after 30 minutes a test of spontaneous alternation task in the T-maze was continuously repeated for 8 trials. Commonly, naive mice alternate each (right and left) goal box in turn, but scopolamine-treated animals tend to enter the same goal box repeatedly. The effect of the test compounds was expressed as % improvement (complete improvement to the alternation level of non-dosed mice=100%).

[3] = tested on: cycloheximide-induced amnesia of passive avoidance response; assay: Improving effect on cycloheximide-induced amnesia of passive avoidance response; settings: cycloheximide 60 mg/kg s.c., retention trial at 24 hours, non-dosed animals=100%
Text: Improving effect on cycloheximide-induced amnesia of passive avoidance response:
Anti-amnesic effect of the test compounds was examined using mice given cycloheximide which is a known amnesia-inducing agent.
A group of 15-20 male mice (Std-ddY strain, 27-33 g) was subjected to training and retention trials for a passive avoidance task in a step-down apparatus (30×30×50 cm) with a grid floor and a wooden platform (4×4×4 cm) in a center of the floor. In the training trial, each mouse was first placed on the platform, and when the mouse stepped down on the grid floor, an electric shock (1 Hz, 0.5 sec, 60 VDC) was delivered to the feet for 15 seconds. Immediately after the training trial, cycloheximide (60 mg/kg, s.c.) and a test compound (i.p.) were administered. The retention trial was carried out 24 hours thereafter, and the time from placing again each mouse on the platform until stepping down on the grid floor (step-down latency) was measured. The step-down latency in the retention trial was markedly shortened by treatment of cycloheximide (amnesia). The effect of test compounds was assessed by % improvement (complete improvement to the latency level of non-dosed animals=100%).

[4] = tested on: brain serotonin metabolite, 5-hydroxyindole-3-acetic acid (5-HIAA); assay: Increasing effect on concentration of brain serotonin metabolite (5-HIAA); settings: Mus musculus, 2 h, two hours after treatment, 5-HIAA level of non-dosed animals=100%
Text: Increasing effect on concentration of brain serotonin metabolite:
A group of 5 male mice (Std-ddY strain, 25-30 g) was used for examining effect of the test compounds on concentration of a brain serotonin metabolite, 5-hydroxyindole-3-acetic acid (5-HIAA).
Mice were killed by decapitation two hours after the treatment with the test compounds. Brains were quickly taken out, homogenized in 1N formic acid-acetone solution, and centrifuged in a refrigerated ultracentrifuge. The supernatant was evaporated by blowing with N2 gas, and then, the residue was again dissolved in 0.01N acetic acid, and served for determining 5-HIAA concentration by high performance liquid chromatography with electrochemical detection. The effect of the test compounds on 5-HIAA concentration was shown as % of control (5-HIAA level of non-dosed animals=100%).

[5] = tested on: reserpine-induced hypothermia; assay: Anti-reserpine effect (reserpine-induced hypothermia); settings: 100 mg/kg orally; reserpine 5 mg/kg s.c.; rectal temperature at 4 hours; complete inhibition=100%
Protocol: A group of 5 male mice (Std-ddY strain, 22-25 g) was used for examining the antagonistic effect of the test compounds on reserpine-induced hypothermia, which is known as a screening method for the antidepressant drug.
Reserpine (5 mg/kg) was subcutaneously administered to the mice and further a test compound was orally administered thereto. Four hours after the administration, rectal temperature of the mice was measured. The effect of the test compounds was estimated by % inhibition (complete inhibition to the hypothermia by reserpine in non-dosed animals=100%).

Row | SMILES | inhibition in vivo at 30 mg/kg [1] [%] | further results
1 | c1ccc(-c2nc(N3CCNCC3)nc3c2CCC3)cc1 [Ex. 3, 2-(1-Piperazinyl)-4-phenyl-6,7-dihydro-5H-cyclopentapyrimidine] | – | inhibition in vivo at 3 mg/kg [1]: 68%; Improvement of scopolamine-induced deficit of spontaneous alternation ([2]; 2.0 mg/kg i.p.): 45.8%; Improvement of cycloheximide-induced amnesia (step-down latency) ([3]; 0.5 mg/kg i.p.): 34.4%; Improvement of cycloheximide-induced amnesia (step-down latency) ([3]; 10.0 mg/kg i.p.): 52.1%
2 | CN1CCN(c2nc3c(c(-c4ccc(F)cc4)n2)CCC3)CC1 [Ex. 4] | – | inhibition in vivo at 10 mg/kg [1]: 66%; response vs control in vivo at 100 mg/kg [4]: 122%
3 | CCN1CCN(c2nc3c(c(-c4ccc(F)cc4)n2)CCC3)CC1 [Ex. 5] | 81.4 | response vs control in vivo at 100 mg/kg [4]: 161%
4 | OCCN1CCN(c2nc3c(c(-c4ccc(F)cc4)n2)CCC3)CC1 [Ex. 6] | 64.5 | response vs control in vivo at 100 mg/kg [4]: 119%
5 | CCN1CCN(c2nc3c(c(-c4ccc(F)cc4)n2)CCCCC3)CC1 [Ex. 8] | – | inhibition in vivo at 10 mg/kg [1]: 80%
6 | Fc1ccc(-c2nc(N3CCN(C4CCCC4)CC3)nc3c2CCC3)cc1 [Ex. 12] | 80.9 | –
7 | CCCN1CCN(c2nc3c(c(-c4ccc(F)cc4)n2)CCC3)CC1 [Ex. 13, 2-(4-n-propyl-1-piperazinyl)-4-(4-fluorophenyl)-6,7-dihydro-5H-cyclopentapyrimidine] | 97.6 | –
8 | Fc1ccc(-c2nc(N3CCNCC3)nc3c2CCCC3)cc1 [Ex. 14, 2-(1-piperazinyl)-4-(4-fluoro-phenyl)-5,6,7,8-tetrahydroquinazoline] | – | inhibition in vivo at 3 mg/kg [1]: 55.2%; Improvement of scopolamine-induced deficit of spontaneous alternation ([2]; 1.0 mg/kg i.p.): 40.7%; Improvement of cycloheximide-induced amnesia (step-down latency) ([3]; 2.0 mg/kg i.p.): 52.5%; response vs control in vivo at 100 mg/kg [4]: 154%; Inhibitory ratio (% inhibition of reserpine-induced hypothermia) [5]: 100%
9 | CCN1CCN(c2nc3c(c(-c4ccccc4)n2)CCCCC3)CC1 [Ex. 16] | 54.2 | –
10 | CCN1CCN(c2nc3c(c(-c4ccccc4)n2)CCCCCC3)CC1 [Ex. 17] | 72.5 | –
11 | c1ccc(CN2CCN(c3nc4c(c(-c5ccccc5)n3)CCC4)CC2)cc1 [Ex. 18] | 54.4 | –
12 | Fc1ccc(-c2nc(N3CCN(Cc4ccccc4)CC3)nc3c2CCC3)cc1 [Ex. 19] | – | inhibition in vivo at 3 mg/kg [1]: 64.4%
13 | Fc1ccc(-c2nc(N3CCN(c4ccccc4)CC3)nc3c2CCC3)cc1 [Ex. 20] | 35.2 | –
14 | CN1CCN(c2nc3c(c(-c4cccc(F)c4)n2)CCC3)CC1 [Ex. 21] | 70.5 | –
15 | COc1ccc(-c2nc(N3CCN(C)CC3)nc3c2CCC3)cc1 [Ex. 23] | 52.4 | –
16 | CCN1CCN(c2nc3c(c(-c4ccc(OC)cc4)n2)CCC3)CC1 [Ex. 24] | 72.5 | –
17 | CN1CCN(c2nc3c(c(-c4ccccc4)n2)CCCC3)CC1 [Ex. 25] | – | inhibition in vivo at 10 mg/kg [1]: 67.2%; response vs control in vivo at 100 mg/kg [4]: 142%; Inhibitory ratio (% inhibition of reserpine-induced hypothermia) [5]: 63%

Row | SMILES | inhibition in vivo at 30 mg/kg [1] [%] | further results
18 | CCN1CCN(c2nc3c(c(-c4ccccc4)n2)CCCC3)CC1 [Ex. 26] | 59.6 | Inhibitory ratio (% inhibition of reserpine-induced hypothermia) [5]: 100%
19 | OCCN1CCN(c2nc3c(c(-c4ccccc4)n2)CCCC3)CC1 [Ex. 27] | 42 | response vs control in vivo at 100 mg/kg [4]: 131%; Inhibitory ratio (% inhibition of reserpine-induced hypothermia) [5]: 46%
20 | CCN1CCN(c2nc3c(c(-c4ccc(F)cc4)n2)CCCC3)CC1 [Ex. 29] | 59.1 | response vs control in vivo at 100 mg/kg [4]: 149%
21 | OCCN1CCN(c2nc3c(c(-c4ccc(F)cc4)n2)CCCC3)CC1 [Ex. 30] | 75.7 | response vs control in vivo at 100 mg/kg [4]: 137%; Inhibitory ratio (% inhibition of reserpine-induced hypothermia) [5]: 67%
22 | Fc1ccc(-c2nc(N3CCN(Cc4ccccc4)CC3)nc3c2CCCC3)cc1 [Ex. 31] | – | inhibition in vivo at 10 mg/kg [1]: 61.1%
23 | CN1CCN(c2nc3c(c(-c4ccc(Cl)cc4)n2)CCCC3)CC1 [Ex. 32] | 62.6 | –
24 | CCN1CCN(c2nc3c(c(-c4ccc(Cl)cc4)n2)CCCC3)CC1 [Ex. 33] | 42.3 | –
25 | OCCN1CCN(c2nc3c(c(-c4ccc(Cl)cc4)n2)CCCC3)CC1 [Ex. 34] | 50.2 | –
26 | c1ccc(CN2CCN(c3nc4c(c(-c5ccccc5)n3)CCCCC4)CC2)cc1 [Ex. 37] | 62.9 | –
27 | Fc1ccc(-c2nc(N3CCN(Cc4ccccc4)CC3)nc3c2CCCCC3)cc1 [Ex. 38] | 81.6 | –
28 | Fc1ccc(-c2nc(N3CCN(c4ccccn4)CC3)nc3c2CCC3)cc1 [Ex. 39] | 55.6 | –
29 | CC1CCc2nc(N3CCNCC3)nc(-c3ccc(F)cc3)c2C1 (stereo not shown) [Ex. 40] | 64.5 | –
30 | CC1CCc2nc(N3CCN(C)CC3)nc(-c3ccc(F)cc3)c2C1 (stereo not shown) [Ex. 41] | 60.8 | –
31 | CCN1CCN(c2nc3c(c(-c4ccc(F)cc4)n2)CC(C)CC3)CC1 (stereo not shown) [Ex. 42] | 71 | –
32 | CC1CCc2nc(N3CCN(CCO)CC3)nc(-c3ccc(F)cc3)c2C1 (stereo not shown) [Ex. 43] | 64.2 | –
33 | O=C(c1ccco1)N1CCN(c2nc3c(c(-c4ccc(F)cc4)n2)CCC3)CC1 [Ex. 45, 2-[4-(2-furoyl)-1-piperazinyl]-4-(4-fluorophenyl)-6,7-dihydro-5H-cyclopentapyrimidine] | 60.4 | –
34 | O=C(CCCN1CCN(c2nc3c(c(-c4ccc(F)cc4)n2)CCC3)CC1)c1ccc(F)cc1 [Ex. 46, 2-[4-[3-(4-fluorobenzoyl)propyl]-1-piperazinyl]-4-(4-fluorophenyl)-6,7-dihydro-5H-cyclopentapyrimidine] | 100 | –

— US5185338A, “Medicament for treating cerebral insufficiency diseases, novel 2-(1-piperazinyl)-4-phenylcycloalkanopyrimidine derivatives, and process for the production thereof” (Dainippon Pharmaceutical Co., Ltd., priority 1989, dated 1993)
